The values below come from patent US4302448A, “Secretin preparations with intensified and protracted action, process for their manufacture, their use as well as dihydroxybenzoyl-L-tyrosine” (Hoechst Aktiengesellschaft, priority 1979, dated 1981).

Where a SMILES comes first, the peptide text is derived from it. Side-chain parts run from the residue outwards. The star is where a group is joined. Cbz = O=C(OCc1ccccc1)*

For this assay, the system named is Pancreatic juice secretion of the rat. As to the kind of experiment: Pancreatic juice secretion of the rat after subcutaneous administration of secretin with depot bodies. The assay is classed as in vivo. The note with it: for Δ% vs. control (percentage by which the pancreatic secretion is above the basal secretion after 5 hours) / Rel. Intensity of effect over 5 hours (total pancreatic juice secretion over 5 hours as compared with control): rat, subcutaneous, 5 CU/kg secretin + 10 mg depot body/animal; for Δ% vs. control (percentage by which the pancreatic secretion is above the basal secretion after 5 hours): control=100%, measure of depot effect; for Rel. Intensity of effect over 5 hours (total pancreatic juice secretion over 5 hours as compared with control): control (0.9% of NaCl)=1. On the procedure: Secretin preparations for subcutaneous application which contained the depot bodies specified in the following Table were tested in animal experiments. In the experimental procedure chosen, 5 to 8 male rats weighing 300 to 500 g each are administered subcutaneously 5 CU/kg of secretin (CU means clinical unit) and 10 mg of the depot body to be tested each in aqueous solution or suspension.
The animals remain without food for 18 hours prior to the test, but they are given water ad libitum. Under urethane anaesthesia (5 ml/kg i.m. of 25% urethane) the abdomen is opened by median section after tracheotomy, and the pylorus is ligated. The ductus choledochus is tied off in its proximal part near the porta hepatis, and the bile is led into the duodenum via a polyethylene tube of a diameter of […]. A cannula or catheter is inserted into the distal part of the bile duct, into which the numerous pancreatic ducts open, immediately before it opens into the duodenum, and the volume of the secretion running off is measured in 60 minute intervals. Following a preliminary run of 60 minutes the preparations are administered.
L means the compound known from literature and characterized by the melting point, optionally UV, IR or NMR. A to C relate to the preparation according to Example 1, process A to C. These compounds were characterized by ultimate analysis. The third column indicates the percentage by which the pancreatic secretion is above the basal secretion after 5 hours (calculated on the control=100%). This value is a measure for the depot effect of the depot body tested. Column 4 indicates the intensification of the secretin effect, with the total pancreatic juice secretion having been given over 5 hours as compared with the control (0.9% of NaCl)=1.

`O=C(N[C@@H](Cc1ccc(O)cc1)C(=O)O)c1ccc(O)cc1O` [2,4-Dihydroxybenzoyl-L-tyrosine]: the “Δ% vs. control (percentage by which the pancreatic secretion is above the basal secretion after 5 hours)” value is recorded as 84%.

With `O=C(Nc1cccc(O)c1)c1cc(O)cc(O)c1` [3,5-Dihydroxybenzoic acid-3-hydroxy-anilide], the “Δ% vs. control (percentage by which the pancreatic secretion is above the basal secretion after 5 hours)” value came to 49% and the “Rel. Intensity of effect over 5 hours (total pancreatic juice secretion over 5 hours as compared with control)” value is on record as 6.2.

As for `O=C(c1ccc2ccccc2c1O)N(CCO)CCO` [1-Hydroxy-2-naphthoic acid-diethanolamide], the “Δ% vs. control (percentage by which the pancreatic secretion is above the basal secretion after 5 hours)” value came to 79% and the “Rel. Intensity of effect over 5 hours (total pancreatic juice secretion over 5 hours as compared with control)” value came to 8.1.

Consider “Tris-(2,8-dihydroxy-3-naphthoyl)-diethylene-triamine”, for which the “Δ% vs. control (percentage by which the pancreatic secretion is above the basal secretion after 5 hours)” value was 94% and the “Rel. Intensity of effect over 5 hours (total pancreatic juice secretion over 5 hours as compared with control)” value is 9.4.

Take `O=C(c1ccccc1)c1ccc(O)c(O)c1O` [2,3,4-Trihydroxy-benzophenone]: the “Δ% vs. control (percentage by which the pancreatic secretion is above the basal secretion after 5 hours)” value worked out at 109% and the “Rel. Intensity of effect over 5 hours (total pancreatic juice secretion over 5 hours as compared with control)” value is listed as 9.1.

Turning to `O=C(c1ccccc1)c1ccc(O)cc1` [4-Hydroxybenzophenone], the “Δ% vs. control (percentage by which the pancreatic secretion is above the basal secretion after 5 hours)” value was determined as 70% and the “Rel. Intensity of effect over 5 hours (total pancreatic juice secretion over 5 hours as compared with control)” value is given as 6.7.

`O=C(c1ccccc1)c1cccc(O)c1` [3-Hydroxy-benzophenone]: the “Δ% vs. control (percentage by which the pancreatic secretion is above the basal secretion after 5 hours)” value is reported as 79% and the “Rel. Intensity of effect over 5 hours (total pancreatic juice secretion over 5 hours as compared with control)” value turned out to be 8.0.

Take “2,8-Dihydroxy-3-naphthoyl-diethanolamine”: the “Δ% vs. control (percentage by which the pancreatic secretion is above the basal secretion after 5 hours)” value turned out to be 77% and the “Rel. Intensity of effect over 5 hours (total pancreatic juice secretion over 5 hours as compared with control)” value is 9.1.

In the case of `NS(=O)(=O)c1cccc(NC(=O)c2ccccc2O)c1` [3-(2-Hydroxybenzoylamino)-benzene-sulfonamide], the “Δ% vs. control (percentage by which the pancreatic secretion is above the basal secretion after 5 hours)” value was 81% and the “Rel. Intensity of effect over 5 hours (total pancreatic juice secretion over 5 hours as compared with control)” value is 8.1.

`NC(=O)c1cc(O)cc(O)c1` [3,5-Dihydroxybenzoic acid amide]: the “Δ% vs. control (percentage by which the pancreatic secretion is above the basal secretion after 5 hours)” value came to 34% and the “Rel. Intensity of effect over 5 hours (total pancreatic juice secretion over 5 hours as compared with control)” value is given as 6.2.

“3,5-Dihydroxyphenylcarbonyl-ethylphenyl-3,5-dimethyl phosphate”: the “Δ% vs. control (percentage by which the pancreatic secretion is above the basal secretion after 5 hours)” value worked out at 62% and the “Rel. Intensity of effect over 5 hours (total pancreatic juice secretion over 5 hours as compared with control)” value turned out to be 3.4.

For the compound “Tris-(4-hydroxybenzoyl)-diethylene-triamine”, the “Δ% vs. control (percentage by which the pancreatic secretion is above the basal secretion after 5 hours)” value worked out at 68% and the “Rel. Intensity of effect over 5 hours (total pancreatic juice secretion over 5 hours as compared with control)” value amounted to 7.8.

For `O=C(N[C@@H](Cc1ccc(O)cc1)C(=O)NCCCC[C@H](NC(=O)[C@H](Cc1ccc(O)cc1)NC(=O)OCc1ccccc1)C(=O)O)OCc1ccccc1` [Nα,Nε-Bis-(benzyloxycarbonyl-L-tyrosyl)-L-lysine] (Cbz-Tyr-Lys([Tyr-Cbz])-OH), the “Δ% vs. control (percentage by which the pancreatic secretion is above the basal secretion after 5 hours)” value is recorded as 48% and the “Rel. Intensity of effect over 5 hours (total pancreatic juice secretion over 5 hours as compared with control)” value was found to be 7.0.

Turning to `O=S(=O)(c1ccc(O)cc1)c1ccc(O)cc1` [4,4'-Dihydroxy-diphenyl sulfone], the “Δ% vs. control (percentage by which the pancreatic secretion is above the basal secretion after 5 hours)” value came out at 74% and the “Rel. Intensity of effect over 5 hours (total pancreatic juice secretion over 5 hours as compared with control)” value was 6.2.

With `O=C(N[C@@H](Cc1ccc(O)cc1)C(=O)N[C@@H](Cc1ccc(O)cc1)C(=O)O)OCc1ccccc1` [Benzyloxycarbonyl-L-tyrosyl-L-tyrosine] (Cbz-Tyr-Tyr-OH), the “Δ% vs. control (percentage by which the pancreatic secretion is above the basal secretion after 5 hours)” value stood at 62% and the “Rel. Intensity of effect over 5 hours (total pancreatic juice secretion over 5 hours as compared with control)” value is recorded as 7.5.

Consider `O=C(CO)c1ccccc1` [2-Hydroxyacetophenone], for which the “Δ% vs. control (percentage by which the pancreatic secretion is above the basal secretion after 5 hours)” value amounted to 38% and the “Rel. Intensity of effect over 5 hours (total pancreatic juice secretion over 5 hours as compared with control)” value is listed as 7.6.

Take “Bis-(benzyloxycarbonyl-L-tyrosine)-diaminoethane”: the “Δ% vs. control (percentage by which the pancreatic secretion is above the basal secretion after 5 hours)” value worked out at 44% and the “Rel. Intensity of effect over 5 hours (total pancreatic juice secretion over 5 hours as compared with control)” value came out at 5.5.

Consider `O=C(NCCN(CCNC(=O)c1cc(O)cc(O)c1)C(=O)c1cc(O)cc(O)c1)c1cc(O)cc(O)c1` [Tris-(3,5-dihydroxybenzoyl-diethylene-triamine], for which the “Δ% vs. control (percentage by which the pancreatic secretion is above the basal secretion after 5 hours)” value worked out at 79% and the “Rel. Intensity of effect over 5 hours (total pancreatic juice secretion over 5 hours as compared with control)” value stood at 8.6.

Take `O=C(c1ccccc1)c1ccc(O)cc1O` [2,4-Dihydroxy-benzophenone]: the “Δ% vs. control (percentage by which the pancreatic secretion is above the basal secretion after 5 hours)” value is 163% and the “Rel. Intensity of effect over 5 hours (total pancreatic juice secretion over 5 hours as compared with control)” value was found to be 9.1.

For the compound `O=C(O)c1cc(O)cc(O)c1` [3,5-Dihydroxybenzoic acid], the “Δ% vs. control (percentage by which the pancreatic secretion is above the basal secretion after 5 hours)” value was 25% and the “Rel. Intensity of effect over 5 hours (total pancreatic juice secretion over 5 hours as compared with control)” value was 6.6.

With “Bis-(3,5-dihydroxybenzoyl-L-tyrosine)-diaminoethane”, the “Δ% vs. control (percentage by which the pancreatic secretion is above the basal secretion after 5 hours)” value is given as 58% and the “Rel. Intensity of effect over 5 hours (total pancreatic juice secretion over 5 hours as compared with control)” value is on record as 7.0.

Turning to `O=C(O)c1ccccc1O` [2-Hydroxy-benzoic acid], the “Δ% vs. control (percentage by which the pancreatic secretion is above the basal secretion after 5 hours)” value was 6% and the “Rel. Intensity of effect over 5 hours (total pancreatic juice secretion over 5 hours as compared with control)” value came out at 4.5.

As to `O=C(O)c1ccc(O)cc1O` [2,4-Dihydroxybenzoic acid], the “Δ% vs. control (percentage by which the pancreatic secretion is above the basal secretion after 5 hours)” value is given as 28% and the “Rel. Intensity of effect over 5 hours (total pancreatic juice secretion over 5 hours as compared with control)” value worked out at 7.1.

For “Tris-(2-hydroxybenzoyl)-diethylene-triamine”, the “Δ% vs. control (percentage by which the pancreatic secretion is above the basal secretion after 5 hours)” value was found to be 62% and the “Rel. Intensity of effect over 5 hours (total pancreatic juice secretion over 5 hours as compared with control)” value is recorded as 8.1.

For “Tris-(3-hydroxybenzoyl)-diethylene-triamine”, the “Δ% vs. control (percentage by which the pancreatic secretion is above the basal secretion after 5 hours)” value is 71% and the “Rel. Intensity of effect over 5 hours (total pancreatic juice secretion over 5 hours as compared with control)” value was 8.0.

Consider `COC(=O)[C@H](CCCCNC(=O)[C@H](Cc1ccc(O)cc1)NC(=O)OCc1ccccc1)NC(=O)[C@H](Cc1ccc(O)cc1)NC(=O)OCc1ccccc1` [Nα,Nε-Bis-(benzyloxycarbonyl-L-tyrosyl)-L-lysine-methyl ester] (Cbz-Tyr-Lys([Tyr-Cbz])-OMe), for which the “Δ% vs. control (percentage by which the pancreatic secretion is above the basal secretion after 5 hours)” value came to 93% and the “Rel. Intensity of effect over 5 hours (total pancreatic juice secretion over 5 hours as compared with control)” value turned out to be 8.2.

`O=C(O)c1ccc(O)cc1` [4-Hydroxybenzoic acid]: the “Δ% vs. control (percentage by which the pancreatic secretion is above the basal secretion after 5 hours)” value is 38% and the “Rel. Intensity of effect over 5 hours (total pancreatic juice secretion over 5 hours as compared with control)” value is on record as 3.8.

With `O=C(NCCNC(=O)c1ccc(O)cc1O)c1ccc(O)cc1O` [Bis-(2,4-dihydroxybenzoyl-)-diaminoethane], the “Δ% vs. control (percentage by which the pancreatic secretion is above the basal secretion after 5 hours)” value amounted to 69% and the “Rel. Intensity of effect over 5 hours (total pancreatic juice secretion over 5 hours as compared with control)” value is 6.5.

Consider `Oc1ccccc1` [Phenol], for which the “Δ% vs. control (percentage by which the pancreatic secretion is above the basal secretion after 5 hours)” value was determined as 51% and the “Rel. Intensity of effect over 5 hours (total pancreatic juice secretion over 5 hours as compared with control)” value turned out to be 8. The “protracted and intensified action of secretin (in words)” value (subcutaneous secretin preparations with depot body) is recorded as “clearly evident”.

As to `O=C(CCc1ccc(O)cc1)c1c(O)cc(O)cc1O` [Phloretin], the “Δ% vs. control (percentage by which the pancreatic secretion is above the basal secretion after 5 hours)” value is on record as 180% and the “Rel. Intensity of effect over 5 hours (total pancreatic juice secretion over 5 hours as compared with control)” value is 8.2.

For the compound `NC(=O)[C@H](CCCCNC(=O)[C@H](Cc1ccc(O)cc1)NC(=O)OCc1ccccc1)NC(=O)[C@H](Cc1ccc(O)cc1)NC(=O)OCc1ccccc1` [Nα,Nε-Bis-(benzyloxycarbonyl-L-tyrosyl)-L-lysine-amide] (Cbz-Tyr-Lys([Tyr-Cbz])-NH2), the “Δ% vs. control (percentage by which the pancreatic secretion is above the basal secretion after 5 hours)” value was determined as 90% and the “Rel. Intensity of effect over 5 hours (total pancreatic juice secretion over 5 hours as compared with control)” value is 8.4.

Take `O=C(NCCN(CCN(CCNC(=O)c1c(O)cccc1O)C(=O)c1c(O)cccc1O)C(=O)c1c(O)cccc1O)c1c(O)cccc1O` [Tetra-(2,6-dihydroxybenzoyl)-triethylene-tetramine]: the “Δ% vs. control (percentage by which the pancreatic secretion is above the basal secretion after 5 hours)” value is listed as 78% and the “Rel. Intensity of effect over 5 hours (total pancreatic juice secretion over 5 hours as compared with control)” value worked out at 8.1.

As to `O=C(c1cc(Cl)ccc1O)N(CCO)CCO` [2-Hydroxy-5-chloro-benzoic acid-diethanolamide], the “Δ% vs. control (percentage by which the pancreatic secretion is above the basal secretion after 5 hours)” value is 77% and the “Rel. Intensity of effect over 5 hours (total pancreatic juice secretion over 5 hours as compared with control)” value stood at 7.3.
